The text below walks through data of ChEMBL document CHEMBL1155779, “Characterization of the PON1 active site using modeling simulation, in relation to PON1 lactonase activity” (Bioorg Med Chem, 2008).

The experiment addresses Serum paraoxonase/arylesterase 1 (Homo sapiens) (UniProt P27169). The experiment in a line: Activity at human recombinant PON1 assessed as hydrolysis of lactone ring at 1 mM by Ellman's method. (In general: Ellman's reagent forms a yellow product with free thiols.)

Chain of Serum paraoxonase/arylesterase 1 (Homo sapiens) (P27169 whole entry): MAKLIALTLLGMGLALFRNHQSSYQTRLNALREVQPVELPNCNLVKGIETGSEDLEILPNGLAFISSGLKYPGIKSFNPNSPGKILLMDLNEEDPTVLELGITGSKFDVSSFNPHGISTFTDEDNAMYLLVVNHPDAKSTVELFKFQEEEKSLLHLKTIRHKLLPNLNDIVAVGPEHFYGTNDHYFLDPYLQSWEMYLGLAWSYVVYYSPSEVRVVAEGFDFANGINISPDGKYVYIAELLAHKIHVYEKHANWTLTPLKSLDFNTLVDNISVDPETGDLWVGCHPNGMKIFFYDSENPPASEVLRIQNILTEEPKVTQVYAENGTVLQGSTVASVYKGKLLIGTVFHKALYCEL

Turning to `O=C1C[C@@H]2C=CC[C@@H]2O1`, the Activity worked out at 1.67 µmol/min/mg.

With `O=C(O)Cc1ccccc1`, the Activity amounted to 112 µmol/min/mg.

`O=C1C[C@H]2C=CC[C@H]2O1`: the Activity was 0.83 µmol/min/mg.

Consider `O=C1Cc2ccccc2O1`, for which the Activity came out at 13.6 µmol/min/mg.

On to `O=C1Cc2cc(O)ccc2O1`, for which the Activity amounted to 33 µmol/min/mg.

In the case of `CC1=CCC(=O)O1`, the Activity turned out to be 18.3 µmol/min/mg.

On to `C[C@H]1CC(=O)O1`, for which the Activity worked out at 3.83 µmol/min/mg.
